In patent US20220073554A1, “LINCOSAMIDE ANTIBIOTICS AND USES THEREOF” (President and Fellows of Harvard College, priority 2017, published 2022):
In brackets after ≈: the same amount, converted by molar mass. Where two headings read alike, the source gives them in different places.

What was measured:
Type in all cases: cell-based
[1] = tested on: P. aeruginosa MMX Mex parent strain; assay: MIC against P. aeruginosa MMX Mex parent strain; details: Pseudomonas aeruginosa
[2] = tested on: K. pneumoniae ATCC 10031; assay: MIC against K. pneumoniae ATCC 10031; details: Klebsiella pneumoniae, ATCC10031
[3] = tested on: H. influenzae ATCC 49247; assay: MIC against H. influenzae ATCC 49247; details: Haemophilus influenzae, ATCC49247; H. influenzae ATCC 49247; read-out: MIC
[4] = tested on: S. aureus BAA 977 iErmA; assay: MIC against S. aureus BAA 977 iErmA; details: Staphylococcus aureus, BAA977
[5] = tested on: P. aeruginosa ATCC 27853; assay: MIC against P. aeruginosa ATCC 27853; details: Pseudomonas aeruginosa, ATCC27853
[6] = tested on: E. faecalis MMX 847 Macrolide-Resistant; assay: MIC against E. faecalis MMX 847 Macrolide-Resistant; details: Enterococcus faecalis
[7] = tested on: S. pyogenes ATCC 19615; assay: MIC against S. pyogenes ATCC 19615; details: Streptococcus pyogenes, ATCC19615; S. pyogenes ATCC 19615; read-out: MIC
[8] = tested on: E. coli ATCC 25922; assay: MIC against E. coli ATCC 25922; details: Escherichia coli, ATCC25922
[9] = tested on: E. coli MMX 0121 ΔTolC; assay: MIC against E. coli MMX 0121 ΔTolC; details: Escherichia coli
[10] = tested on: S. aureus MMX 3035 cErmA; assay: MIC against S. aureus MMX 3035 cErmA; details: Staphylococcus aureus, MMX3035CERMA; S. aureus MMX 3035 cErmA; read-out: MIC
[11] = tested on: E. coli MMX TolC parent strain; assay: MIC against E. coli MMX TolC parent strain; details: Escherichia coli
[12] = tested on: C. difficile BAA 1805; assay: MIC against C. difficile BAA 1805; details: Clostridioides difficile, BAA1805
[13] = tested on: S. pneumoniae MMX 3028 cErmB; assay: MIC against S. pneumoniae MMX 3028 cErmB; details: Streptococcus pneumoniae, MMX3028CERMB; S. pneumoniae MMX 3028 cErmB; read-out: MIC
[14] = tested on: E. coli ATCC 15922; assay: MIC against E. coli ATCC 15922; details: Escherichia coli, ATCC15922
[15] = tested on: S. pyogenes MMX 946 Macrolide-Resistant; assay: MIC against S. pyogenes MMX 946 Macrolide-Resistant; details: Streptococcus pyogenes; S. pyogenes MMX 946 Macrolide-Resistant (MacRes); read-out: MIC
[16] = tested on: S. pneumoniae ATCC 49619; assay: MIC against S. pneumoniae ATCC 49619; details: Streptococcus pneumoniae, ATCC49619; S. pneumoniae ATCC 49619; read-out: MIC
[17] = tested on: S. aureus MP-549 msr(a) USA 300; assay: MIC against S. aureus MP-549 msr(a) USA 300; details: Staphylococcus aureus, USA300, S. aureus MP-549 msr(a) USA 300
[18] = tested on: S. pneumoniae MMX 3031 cMefA; assay: MIC against S. pneumoniae MMX 3031 cMefA; details: Streptococcus pneumoniae, MMX3031CMEFA
[19] = tested on: P. aeruginosa MMX 3476 Δmex; assay: MIC against P. aeruginosa MMX 3476 Δmex; details: Pseudomonas aeruginosa
[20] = tested on: B. fragilis ATCC 25285; assay: MIC against B. fragilis ATCC 25285; details: Bacteroides fragilis, ATCC25285; B. fragilis ATCC 25285; read-out: MIC
[21] = tested on: E. coli MP-9 ΔTolC; assay: MIC against E. coli MP-9 ΔTolC; details: Escherichia coli
[22] = tested on: S. aureus MP-513 clinical cErm; assay: MIC against S. aureus MP-513 clinical cErm; details: Staphylococcus aureus
[23] = tested on: S. aureus ATCC 29213; assay: MIC against S. aureus ATCC 29213; details: Staphylococcus aureus
[24] = ATCC29213, S. aureus ATCC 29213, read-out: MIC

| Structure (SMILES) | MIC [4] | MIC [17] | MIC [5] | MIC [2] | MIC [21] | MIC [22] | MIC [8] | further results |
| --- | --- | --- | --- | --- | --- | --- | --- | --- |
| CSC1O[C@H]([C@H](NC(=O)[C@H]2NC[C@@H]3C[C@H]4C[C@H]4CO[C@H]32)[C@H](C)Cl)C(O)[C@@H](O)[C@H]1O (stereo in doubt) [FSA-507007] | 0.5 µg/mL (≈ 1.11 µM) |  |  |  |  |  |  | MIC ([1]; P. aeruginosa MMX Mex parent strain, read-out: MIC): > 64 µg/mL; MIC ([2]; K. pneumoniae ATCC 10031, read-out: MIC): > 64 µg/mL; MIC [3]: 2 µg/mL (≈ 4.43 µM); MIC ([5]; P. aeruginosa ATCC 27853, read-out: MIC): > 64 µg/mL; MIC ([6]; E. faecalis MMX 847 Macrolide-Resistant (MacRes), read-out: MIC): > 64 µg/mL; MIC [7]: ≤ 0.06 µg/mL; MIC ([8]; E. coli ATCC 25922, read-out: MIC): > 64 µg/mL; MIC [9]: 8 µg/mL (≈ 17.7 µM); MIC [10]: > 64 µg/mL; MIC ([11]; E. coli MMX TolC parent strain, read-out: MIC): > 64 µg/mL; MIC ([12]; C. difficile BAA 1805, read-out: MIC): 4 µg/mL (≈ 8.87 µM) |
| CSC1O[C@H]([C@H](NC(=O)[C@@H]2[C@@H]3OCC=CC[C@H]3CN2C)[C@H](C)Sc2ccc(-c3cncnc3)cc2)C(O)[C@@H](O)[C@H]1O (some centres unmarked) [FSA-212034] |  | 0.5 µg/mL (≈ 0.829 µM) | > 64 µg/mL |  |  |  |  | MIC [13]: 4 µg/mL (≈ 6.64 µM); MIC [1]: > 64 µg/mL; MIC [14]: > 64 µg/mL; MIC [3]: 4 µg/mL (≈ 6.64 µM); MIC [15]: 2 µg/mL (≈ 3.32 µM); MIC [16]: ≤ 0.06 µg/mL; MIC [18]: ≤ 0.06 µg/mL; MIC [6]: > 64 µg/mL; MIC [19]: > 64 µg/mL; MIC [7]: ≤ 0.06 µg/mL; MIC [9]: 1 µg/mL (≈ 1.66 µM); MIC [11]: > 64 µg/mL; MIC [20]: 1 µg/mL (≈ 1.66 µM); MIC [12]: 0.5 µg/mL (≈ 0.829 µM) |
| CSC1O[C@H]([C@H](NC(=O)[C@H]2NC[C@@H]3CNCCO[C@H]32)[C@H](C)Cl)C(O)[C@@H](O)[C@H]1O (some centres unmarked) [FSA-503001] | > 64 µg/mL | > 64 µg/mL | > 64 µg/mL | > 64 µg/mL | > 64 µg/mL | > 64 µg/mL | > 64 µg/mL |  |
| CSC1O[C@H]([C@H](NC(=O)[C@H]2NC[C@@H]3CN(C)CCO[C@H]32)[C@H](C)Cl)C(O)[C@@H](O)[C@H]1O (some centres unmarked) [FSA-503002] | > 64 µg/mL | > 64 µg/mL | > 64 µg/mL | > 64 µg/mL | > 64 µg/mL | > 64 µg/mL | > 64 µg/mL |  |
| CCCN1CCO[C@@H]2[C@H](CN[C@@H]2C(=O)N[C@H]([C@H](C)Cl)[C@H]2OC(SC)[C@H](O)[C@H](O)C2O)C1 (some centres unmarked) [FSA-503003] | 4 µg/mL (≈ 8.3 µM) | 2 µg/mL (≈ 4.15 µM) | > 64 µg/mL | > 64 µg/mL | > 64 µg/mL | > 64 µg/mL | > 64 µg/mL | MIC [23, 24]: 4 µg/mL (≈ 8.3 µM) |
| CCNC(=O)N1CCO[C@@H]2[C@H](CN[C@@H]2C(=O)N[C@H]([C@H](C)Cl)[C@H]2OC(SC)[C@H](O)[C@H](O)C2O)C1 (some centres unmarked) [FSA-503004] | > 64 µg/mL | > 64 µg/mL | > 64 µg/mL | > 64 µg/mL | > 64 µg/mL | > 64 µg/mL | > 64 µg/mL | MIC ([23]; ATCC29213): > 64 µg/mL |
| CSC1O[C@H]([C@H](NC(=O)[C@H]2NC[C@@H]3CN(Cc4ccnc(N)c4)CCO[C@H]32)[C@H](C)Cl)C(O)[C@@H](O)[C@H]1O (some centres unmarked) [FSA-504049] |  | 8 µg/mL (≈ 14.6 µM) | > 64 µg/mL | > 64 µg/mL | > 64 µg/mL | > 64 µg/mL | > 64 µg/mL | MIC [23, 24]: 14 µg/mL (≈ 25.6 µM) |
